From patent US11364248B2 (AMGEN INC., priority 2017, dated 2022)
Read-outs that look alike come from different tables or passages of the source.

Assays:
OPM-2 = assay: Cell Viability Assay (OPM-2 10 FBS); type: cell-based, human; settings: OPM-2 cells, CellTiter-Glo, read-out: OPM-2 10% FBS IC50 IP
Protocol: Cell Viability Assay (OPM-2 10 FBS)
The human multiple myeloma cell line, OPM-2, was cultured in complete growth medium containing RPMI 1640 and 10% fetal bovine serum (FBS). Cells were seeded into 384-well plates at 3000 cells/well density in complete growth medium containing 10% FBS, and incubated for 16 h with serially diluted test compounds in a 37° C. incubator with 5% CO2. Cell viability was tested using CellTiter-Glo® assay (Promega, Madison, Wis.) according to the manufacturer recommendations. Luminescence was determined using an EnVision® Multilabel plate reader 25 min after the addition of detection reagent. IC50 values were then calculated with Xlfit using a logistical 4-parameter fit model in GraphPad Prism (GraphPad Software, San Diego, Calif.) or in Genedata Screener® (Genedata, Basel, Switzerland).

Mcl-1/Bim interaction = Mcl-1/Bim interaction (Homo sapiens (Human), UniProt Q07820); assay: Cell Free Mcl-1: Bim Affinity Assay (Mcl-1 HTRF); type: binding; settings: TR-FRET, recombinant human Mcl-1(171-327), biotin-Bim(51-76); read-out: Mel-1 HTRF IC50
Chain of Mcl-1/Bim interaction (Q07820 171-327): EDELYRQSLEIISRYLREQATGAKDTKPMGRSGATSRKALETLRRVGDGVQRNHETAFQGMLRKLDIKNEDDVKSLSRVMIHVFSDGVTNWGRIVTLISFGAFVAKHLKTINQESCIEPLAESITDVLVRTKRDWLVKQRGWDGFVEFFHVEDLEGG
Protocol: Cell Free Mcl-1: Bim Affinity Assay (Mcl-1 HTRF)
The inhibition of the Mcl-1/Bim interaction was measured using a time-resolved fluorescence resonance energy transfer (TR-FRET) assay. The recombinant human Mcl-1 (C-terminally 6×His tagged Mcl-1 containing residues 171-327) was generated at Amgen Inc (Thousand Oaks, Calif.). A biotinylated peptide derived from human Bim (residues 51-76) was purchased from CPC Scientific (San Jose, Calif.). The TR-FRET assay was conducted in a 384-well white OptiPlate™ (PerkinElmer, Waltham, Mass.) in a total volume of 40 μL. The reaction mixture contained 0.1 nM Mcl-1(171-327), 0.05 nM biotin-Bim(51-76), 0.05 nM LANCER Eu-W1024 Anti-6×His (PerkinElmer), 0.072 nM Streptavidin-Xlent (Cisbio, Bedford, Mass.), and serially diluted test compounds in the binding buffer of 20 mM Hepes, pH 7.5, 150 mM NaCl, 0.016 mM Brij©35, and 1 mM dithiothreitol. Test compounds were pre-incubated with Mcl-1(171-327) and biotin-Bim (51-76) for 60 min before addition of the detection mixture (LANCE Eu-W1024 Anti-6×His and Streptavidin-Xlent). The reaction plates were further incubated overnight and then were read on an Envision® multimode reader (PerkinElmer). Fluorescence signals were measured at 620 nm (40-nm bandwidth) and 665 nm (7.5-nm bandwidth) with a 60 μs delay after excitation at 320 nm (75-nm bandwidth). The signal ratio at 665/620 nm corresponded to the Mcl-1/Bim interaction and was used in all data analyses. The IC50 values of test compounds were determined from duplicate data by analyzing competition curves using a four-parameter sigmoidal model in GraphPad Prism (GraphPad Software, San Diego, Calif.) or in Genedata Screener® (Genedata, Basel, Switzerland).

| Structure (SMILES) | IC50 (Mcl-1/Bim interaction) [µM] | IC50 (OPM-2; 16 h) [µM] | IC50 (OPM-2; Homo sapiens, OPM-2, 16 h) [µM] |
| --- | --- | --- | --- |
| CC[C@@H]1CCCC[C@H]([C@H]2OC[C@@H](N(C)C)CO2)C2CC[C@H]2CN2C[C@@]3(CCCc4cc(Cl)ccc43)COc3ccc(cc32)C(=O)NS1(=O)=O (stereo in doubt) [Example 73, (1S,3′R,6′S,7′S,12′R)-6-chloro-7′-(cis-5-(dimethylamino)-1,3-dioxan-2-yl)-12′-ethyl-3,4-dihydro-2H,15′H-spiro[naphthalene-1,22′-[20]oxa[13]thia[1,14]diazatetracyclo [14.7.2.0~3,6~.0~19,24~]pentacosa[16,18,24]trien]-15′-one 13′,13′-dioxide] | 0.000657 | 0.915 | – |
| C[C@@H]1[C@@H](C)CCC[C@H]([C@H]2O[C@H]3CNC[C@H]3O2)[C@@H]2CC[C@H]2CN2C[C@@]3(CCCc4cc(Cl)ccc43)COc3ccc(cc32)C(=O)NS1(=O)=O (stereo in doubt) [Example 10, (1S,3′R,6′R,7′R,11′S,12′R)-6-chloro-11′,12′-dimethyl-7′-((2r,3aR,6aS)-tetrahydro-3aH-[1,3]dioxolo[4,5-c]pyrrol-2-yl)-3,4-dihydro-2H,15′H-spiro[naphthalene-1,22′-[20]oxa[13]thia[1,14]diazatetracyclo [14.7.2.0~3,6~.0~19,24~]pentacosa[16,18,24]trien]-15′-one 13′,13′-dioxide] | 0.00127 | 1.11 | – |
| C[C@@H]1[C@@H](C)CCC[C@H]([C@H]2O[C@H]3CNC[C@H]3O2)[C@@H]2CC[C@H]2CN2C[C@@]3(CCCc4cc(Cl)ccc43)COc3ccc(cc32)C(=O)NS1(=O)=O (stereo in doubt) [Example 15, (1S,3′R,6′R,7′R,11′S,12′R)-6-chloro-11′,12′-dimethyl-7′-((2r,3aR,6aS)-tetrahydro-3aH-[1,3]dioxolo[4,5-c]pyrrol-2-yl)-3,4-dihydro-2H,15′H-spiro[naphthalene-1,22′-[20]oxa[13]thia[1,14]diazatetracyclo [14.7.2.0~3,6~.0~19,24~]pentacosa[16,18,24]trien]-15′-one 13′,13′-dioxide] | 0.000765 | 0.625 | – |
| C[C@H]1CCC[C@H]([C@H]2OC[C@@H](N(C)C)CO2)[C@@H]2CC[C@H]2CN2C[C@@]3(CCCc4cc(Cl)ccc43)COc3ccc(cc32)C(=O)NS(=O)(=O)C1 (stereo in doubt) [Example 77] | 0.00265 | – | 0.595 |
| CC(=O)N1C[C@@H]2O[C@@H]([C@H]3CCC[C@H](C)[C@@H](C)S(=O)(=O)NC(=O)c4ccc5c(c4)N(C[C@@H]4CC[C@H]43)C[C@@]3(CCCc4cc(Cl)ccc43)CO5)O[C@@H]2C1 (single isomer, unassigned) [Example 39] | 0.000375 | 0.578 | – |
| CCN(C)[C@H]1CO[C@@H]([C@H]2CCC[C@H](C)[C@@H](C)S(=O)(=O)NC(=O)c3ccc4c(c3)N(C[C@@H]3CC[C@H]32)C[C@@]2(CCCc3cc(Cl)ccc32)CO4)OC1 [Example 66, (1S,3′R,6′R,7′S,11′S,12′R)-6-chloro-7′-(cis-5-(ethyl(methyl)amino)-1,3-dioxan-2-yl)-11′,12′-dimethyl-3,4-dihydro-2H,15′H-spiro[naphthalene-1,22′-[20]oxa[13]thia[1,14]diazatetracyclo [14.7.2.0~3,6~.0~19,24~]pentacosa[16,18,24]trien]-15′-one 13′,13′-dioxide] | 0.00129 | – | 0.326 |
| CC(=O)N1C[C@@H]2O[C@@H]([C@H]3CCC[C@H](C)[C@@H](C)S(=O)(=O)NC(=O)c4ccc5c(c4)N(C[C@@H]4CC[C@H]43)C[C@@]3(CCCc4cc(Cl)ccc43)CO5)O[C@@H]2C1 [Example 36, (1S,3′R,6′R,7′S,11′S,12′R)-7′-((2r,3aR,6aS)-5-acetyltetrahydro-3aH-[1,3]dioxolo[4,5-c]pyrrol-2-yl)-6-chloro-11′,12′-dimethyl-3,4-dihydro-2H,15′H-spiro[naphthalene-1,22′-[20]oxa[13]thia[1,14]diazatetracyclo [14.7.2.0~3,6~.0~19,24~]pentacosa[16,18,24]trien]-15′-one 13′,13′-dioxide] | 0.000217 | 0.169 | – |
| COC[C@H]1[C@@H](C)CCC[C@H]([C@H]2OC[C@@H](N(C)C)CO2)[C@@H]2CC[C@H]2CN2C[C@@]3(CCCc4cc(Cl)ccc43)COc3ccc(cc32)C(=O)NS1(=O)=O [Example 88, (1S,3′R,6′R,7′S,11′S,12′R)-6-chloro-7′-(cis-5-(dimethylamino)-1,3-dioxan-2-yl)-12′-(methoxymethyl)-11′-methyl-3,4-dihydro-2H,15′H-spiro[naphthalene-1,22′-[20]oxa[13]thia[1,14]diazatetracyclo [14.7.2.0~3,6~.0~19,24~]pentacosa[16,18,24]trien]-15′-one 13′,13′-dioxide] | 0.00437 | 0.335 | – |
| C[C@@H]1[C@@H](C)CCC[C@@H]([C@H]2OC[C@@H](N3CCC3(C)C)CO2)[C@@H]2CC[C@H]2CN2C[C@@]3(CCCc4cc(Cl)ccc43)COc3ccc(cc32)C(=O)NS1(=O)=O (single isomer, unassigned) [Example 64] | 0.0049 | 7.49 | – |

Continued, in another order:

| IC50 (Mcl-1/Bim interaction) [µM] | Structure (SMILES) | IC50 (OPM-2; 16 h) [µM] | IC50 (OPM-2; Homo sapiens, OPM-2, 16 h) [µM] |
| --- | --- | --- | --- |
| 0.000555 | C[C@@H]1[C@@H](C)CCC[C@H]([C@H]2OC[C@H](O)CO2)[C@@H]2CC[C@H]2CN2C[C@@]3(CCCc4cc(Cl)ccc43)COc3ccc(cc32)C(=O)NS1(=O)=O [Example 13, (1S,3′R,6′R,7′S,11′S,12′R)-6-chloro-7′-(trans-5-hydroxy-1,3-dioxan-2-yl)-11′,12′-dimethyl-3,4-dihydro-2H,15′H-spiro[naphthalene-1,22′-[20]oxa[13]thia[1,14]diazatetracyclo [14.7.2.0~3,6~.0~19,24~]pentacosa[16,18,24]trien]-15′-one 13′,13′-dioxide] | 0.635 | – |
| 0.00616 | CO[C@H]1CO[C@@H]([C@@H]2CCC[C@H](C)[C@@H](C)S(=O)(=O)NC(=O)c3ccc4c(c3)N(C[C@@H]3CC[C@H]32)C[C@@]2(CCCc3cc(Cl)ccc32)CO4)OC1 (single isomer, unassigned) [Example 26] | 14.6 | – |
| 0.0111 | C[C@@H]1[C@@H](C)CCC[C@@H]([C@H]2OC[C@H](CN(C)C)O2)[C@@H]2CC[C@H]2CN2C[C@@]3(CCCc4cc(Cl)ccc43)COc3ccc(cc32)C(=O)NS1(=O)=O (single isomer, unassigned) [Example 34] | 5.83 | – |
| 0.000568 | CC(=O)N(C)[C@H]1CO[C@@H]([C@H]2CCC[C@H](C)[C@@H](C)S(=O)(=O)NC(=O)c3ccc4c(c3)N(C[C@@H]3CC[C@H]32)C[C@@]2(CCCc3cc(Cl)ccc32)CO4)OC1 [Example 47, N-(cis-2-((1S,3′R,6′R,7′S,11′S,12′R)-6-chloro-11′,12′-dimethyl-13′,13′-dioxido-15′-oxo-3,4-dihydro-2H-spiro[naphthalene-1,22′-[20]oxa[13]thia[1,14]diazatetracyclo [14.7.2.0~3,6~.0~19,24~]pentacosa[16,18,24]trien]-7′-yl)-1,3-dioxan-5-yl)-N-methylacetamide] | – | 0.545 |
| 0.000617 | CN[C@H]1CO[C@@H]([C@H]2CCC[C@H](C)[C@@H](C)S(=O)(=O)NC(=O)c3ccc4c(c3)N(C[C@@H]3CC[C@H]32)C[C@@]2(CCCc3cc(Cl)ccc32)CO4)OC1 (relative stereo) [Example 42] | 0.217 | – |
| 0.000704 | C[C@@H]1[C@@H](C)CCC[C@H]([C@H]2OC[C@](N)(CO)CO2)[C@@H]2CC[C@H]2CN2C[C@@]3(CCCc4cc(Cl)ccc43)COc3ccc(cc32)C(=O)NS1(=O)=O [Example 79, (1S,3′R,6′R,7′S,11′S,12′R)-7′-(cis-5-amino-5-(hydroxymethyl)-1,3-dioxan-2-yl)-6-chloro-11′,12′-dimethyl-3,4-dihydro-2H,15′H-spiro[naphthalene-1,22′-[20]oxa[13]thia[1,14]diazatetracyclo [14.7.2.0~3,6~.0~19,24~]pentacosa[16,18,24]trien]-15′-one 13′,13′-dioxide] | 0.829 | – |
